According to patent publication US20220081412A1, “QUINOLINYL-PYRAZINE-CARBOXAMIDE COMPOUNDS AND USES THEREOF” (The Regents of the University of Michigan, priority 2018, published 2022):

Tested on: MIA PaCa-2 cells
Test: Bru-seq analysis for nascent RNA synthesis (log2FC of genes, GSEA gene sets)
Assay type: cell-based, human
[1] = downregulated gene sets, C2, 4 h, MIA PaCa-2 cells

Question: Which results are given for `CCN(CC)CCCC(C)Nc1cnc(C(=O)Nc2cc(C)cc3cccnc23)cn1` (stereo not drawn) [J4, 5-((5-(diethylamino)pentan-2-yl)amino)-N-(6-methylquinolin-8-yl)pyrazine-2-carboxamide]?
Answer: ES: 0.576; NES: 1.841; synthesis of INSIG1, DHCR7, MVK and MSMO1 RNAs: upregulated; expression of GPR135, SPDYA and ABCA1 (4 h): significant decrease; Cell Cycle, Mitotic pathway (4 h of treatment): upregulated; log2FC (AC004076.2, 4 h): −0.85; log2FC (AC005534.1, 4 h): −0.75; log2FC (AC005614.2, 4 h): −0.94; log2FC (AC006141.1, 4 h): −0.78; log2FC (AC007038.2, 4 h): −1.27; log2FC (AC007619.1, 4 h): −0.84; log2FC (AC007620.2, 4 h): −0.89; log2FC (AC008115.3, 4 h): 0.78; log2FC (AC008264.2, 4 h): −0.80; log2FC (AC008906.1, 4 h): −0.98; log2FC (AC010615.1, 4 h): −1.64; log2FC (AC011379.1, 4 h): 0.74; log2FC (AC018630.1, 4 h): −0.77; log2FC (AC026461.1, 4 h): 0.86; log2FC (AC068473.5, 4 h): 0.77; log2FC (AC080080.1, 4 h): 0.72; log2FC (AC087280.2, 4 h): −0.80; log2FC (AC091152.2, 4 h): −1.06; log2FC (AC091940.1, 4 h): −0.79; log2FC (AC098934.1, 4 h): 0.72; log2FC (AC108471.2, 4 h): 0.85; log2FC (AC110769.2, 4 h): 0.80; log2FC (AC117382.1, 4 h): −0.85; log2FC (AC141586.1, 4 h): 0.77; log2FC (AC239868.4, 4 h): 1.12; log2FC (AL050343.1, 4 h): −0.82; log2FC (AL133338.1, 4 h): 1.02; log2FC (AL136984.1, 4 h): −1.05; log2FC (AL136987.1, 4 h): −0.83; log2FC (AL139260.1, 4 h): 0.88; log2FC (AP001107.9, 4 h): 0.81; log2FC (AP001830.1, 4 h): 0.75; log2FC (AP002387.1, 4 h): 0.72; log2FC (AP002748.3, 4 h): 0.76; log2FC (AVPI1, 4 h): 1.37; log2FC (BHLHE40, 4 h): 1.32; log2FC (CASC21, 4 h): −0.87; log2FC (CCNG2, 4 h): 1.62; log2FC (DDIT3, 4 h): 1.32; log2FC (DDIT4, 4 h): 2.33; log2FC (DEPDC1-AS1, 4 h): 1.05; log2FC (DHCR7, 4 h): 2.13; log2FC (DNAJC3-AS1, 4 h): 0.75; log2FC (EXTL3-AS1, 4 h): 0.73; log2FC (FDFT1, 4 h): 1.65; log2FC (FP671120.1, 4 h): −1.32; log2FC (HIST1H1E, 4 h): 1.24; log2FC (HIST1H3B, 4 h): 1.26; log2FC (HMGCS1, 4 h): 1.35; log2FC (HSD17B7P2, 4 h): 0.76; log2FC (IDI1, 4 h): 1.49; log2FC (INSIG1, 4 h): 2.57; log2FC (KRT18P31, 4 h): 0.81; log2FC (LINC01204, 4 h): −0.84; log2FC (LINC01337, 4 h): −1.19; log2FC (LINC01547, 4 h): 0.93; log2FC (LINC01930, 4 h): −1.00; log2FC (LIPG, 4 h): 1.81; log2FC (LSS, 4 h): 1.25; log2FC (MSMO1, 4 h): 1.65; log2FC (MVD, 4 h): 1.36; log2FC (MVK, 4 h): 1.68; log2FC (NEU1, 4 h): 2.68; log2FC (PCYT2, 4 h): 1.70; log2FC (RNVU1-6, 4 h): −1.50; log2FC (SCD, 4 h): 1.95; log2FC (SDR39U1, 4 h): 1.67; log2FC (SH2D5, 4 h): 1.29; log2FC (SLC2A1-AS1, 4 h): 1.02; log2FC (SLC2A6, 4 h): 1.74; log2FC (SYPL1P2, 4 h): 0.84; log2FC (TBC1D17, 4 h): 1.62; log2FC (TPRKBP2, 4 h): −1.15; log2FC (TUBA1A, 4 h): 1.24; log2FC (ZNF295-AS1, 4 h): 0.94; ES BILD_CTNNBl_ONCOGENIC_SIGNATURE [1]: −0.449; ES DACOSTA_UV_RESPONSE_VIA_ERCC3_COMMON_DN [1]: −0.439; ES DACOSTA_UV_RESPONSE_VIA_ERCC3_TTD_DN [1]: −0.469; ES DACOSTA_UV_RESPONSE_VIA_ERCC3_XPCS_DN [1]: −0.428; ES DAZARD_UV_RESPONSE_CLUSTER_G6 [1]: −0.408; ES DOANE_BREAST_CANCER_CLASSES_DN [1]: −0.578; ES GABRIELY_MIR21_TARGETS [1]: −0.328; ES GUENTHER_GROWTH_SPHERICAL_VS_ADHERENT_DN [1]: −0.531; ES HAMAI_APOPTOSIS_VIA_TRAIL_UP [1]: −0.368; ES HAN_JNK_SINGALING_DN [1]: −0.579; ES HUTTMANN_B_CLL_POOR_SURVIVAL_DN [1]: −0.606; ES KEGG_NEUROACTIVE_LIGAND_RECEPTOR_INTERACTION [1]: −0.624; ES LEE_TARGETS_OF_PTCH1_AND_SUFU_UP [1]: −0.515; ES MARTINEZ_RESPONSE_TO_TRABECTEDIN [1]: −0.482; ES MILI_PSEUDOPODIA_HAPTOTAXIS_UP [1]: −0.322; ES RAMALHO_STEMNESS_UP [1]: −0.331; ES REACTOME_ASSOCIATION_OF_TRIC_CCT_WITH_TARGET_PROTEINS_DURING_BIOSYNTHESIS [1]: −0.551; ES SENGUPTA_NASOPHARYNGEAL_CARCINOMA_UP [1]: −0.360; ES SENGUPTA_NASOPHARYNGEAL_CARCINOMA_WITH_LMP1_UP [1]: −0.365; ES TCGA_GLIOBLASTOMA_COPY_NUMBER_DN [1]: −0.533; ES THUM_SYSTOLIC_HEART_FAILURE_DN [1]: −0.352; ES TURASHVILI_BREAST_LOBULAR_CARCINOMA_VS_DUCTAL_NORMAL_DN [1]: −0.476; ES ZHANG_TLX_TARGETS_36HR_DN [1]: −0.470; ES ZHANG_TLX_TARGETS_DN [1]: −0.446; ES ZHENG_FOXP3_TARGETS_IN_T_LYMPHOCYTE_DN [1]: −0.611; NES BILD_CTNNBl_ONCOGENIC_SIGNATURE [1]: −1.841; NES DACOSTA_UV_RESPONSE_VIA_ERCC3_COMMON_DN [1]: −2.348; NES DACOSTA_UV_RESPONSE_VIA_ERCC3_TTD_DN [1]: −1.878; NES DACOSTA_UV_RESPONSE_VIA_ERCC3_XPCS_DN [1]: −1.784; NES DAZARD_UV_RESPONSE_CLUSTER_G6 [1]: −1.855; NES DOANE_BREAST_CANCER_CLASSES_DN [1]: −1.830; NES GABRIELY_MIR21_TARGETS [1]: −1.642; NES GUENTHER_GROWTH_SPHERICAL_VS_ADHERENT_DN [1]: −1.656; NES HAMAI_APOPTOSIS_VIA_TRAIL_UP [1]: −1.942; NES HAN_JNK_SINGALING_DN [1]: −1.665; NES HUTTMANN_B_CLL_POOR_SURVIVAL_DN [1]: −2.076; NES KEGG_NEUROACTIVE_LIGAND_RECEPTOR_INTERACTION [1]: −1.898; NES LEE_TARGETS_OF_PTCH1_AND_SUFU_UP [1]: −1.661; NES MARTINEZ_RESPONSE_TO_TRABECTEDIN [1]: −1.727; NES MILI_PSEUDOPODIA_HAPTOTAXIS_UP [1]: −1.718; NES RAMALHO_STEMNESS_UP [1]: −1.615; NES REACTOME_ASSOCIATION_OF_TRIC_CCT_WITH_TARGET_PROTEINS_DURING_BIOSYNTHESIS [1]: −1.804; NES SENGUPTA_NASOPHARYNGEAL_CARCINOMA_UP [1]: −1.794; NES SENGUPTA_NASOPHARYNGEAL_CARCINOMA_WITH_LMP1_UP [1]: −1.837; NES TCGA_GLIOBLASTOMA_COPY_NUMBER_DN [1]: −1.738; NES THUM_SYSTOLIC_HEART_FAILURE_DN [1]: −1.673
